“And” between values parts separate entries of the source, which are not always exact repeats. Equal entries are not always repeated.
Experiments:
[1] = system: HIV-1 (patient-derived POL segment); assay: phenotypic drug resistance test, resistance test vectors with patient-derived POL segment (entire pol gene), luciferase, 293 cells; assay type: cell-based
Text: (§1) Patient-derived segment(s) corresponding to the entire pol gene, encoding HIV protease, reverse transcriptase (including RNAse H), and integrase (hereinafter “POL”), the portion of pol encoding amino acids 1-305 of reverse transcriptase (hereinafter “PR-RT”), the portion of pol encoding amino acids 319-440 of reverse transcriptase (including RNAse H), and integrase (hereinafter “RHIN”), were amplified by the reverse transcription-polymerase chain reaction method (RT-PCR) using viral RNA isolated from viral particles present in the plasma or serum of HIV-infected individuals as described below. The portion of pol encoding protease, amino acids 1-531 of reverse transcriptase (including RNase H) (hereinafter “PRRT-RH”), or the portion of pol encoding protease, reverse transcriptase (including RNAse H) and integrase (hereinafter “PRRT-RHIN”), were assembled from amplicons described above by standard recombinant DNA techniques involving a KpnI restriction site at amino acid 400 or a Pin A1 site at amino acid 315.
(§2) Virus was pelleted by centrifugation at 20,400×g for 60 min from plasma (typically, 1 ml) prepared from blood samples collected in evacuated tubes containing either EDTA, acid-citrate dextrose, or heparin as an anticoagulant. Virus particles were disrupted by resuspending the pellets in 200 [1.1 of lysis buffer (4 M guanidine thiocyanate, 0.1 M Tris HCl (pH 8.0), 0.5% sodium lauryl sarcosine, 1% dithiothreitol). RNA was extracted from viral lysates by using oligo(dT) linked to magnetic beads (Dynal, Oslo, Norway). Reverse transcription was performed with Superscript III (Invitrogen) at 50 degrees for 1 hour using primer 1.
(§3) From the resultant cDNA either POL or RHIN sequences were amplified using the Advantage High Fidelity PCR kit (BD Biosciences; Clontech). POL amplification products are made using forward Primer 3 containing an Apal site and reverse Primer 4 containing a Xho 1 site. RHIN amplification products are made using forward Primer 2 containing a P1NA1 site and reverse Primer 4 containing a Xho 1 site.
(§4) A retroviral vector designed to measure antiretroviral drug susceptibility was constructed by using an infectious molecular clone of HIV-1. The vector, referred to herein as an indicator gene viral vector (IGVV), is replication defective and contains a luciferase expression cassette inserted within a deleted region of the envelope (env) gene. The IGVV is described in U.S. Pat. No. 5,837,464 (International Publication Number WO 97/27319) which is hereby incorporated by reference in its entirety. This retroviral vector was further modified to allow insertion of either the entire pol gene (POL) or the portion of poi encoding amino acids 319-440 of reverse transcriptase, the RNase H portion of reverse transcriptase, and integrase (REIN) by engineering an Xho l restriction enzyme recognition site into vif. Prior to doing this, an Xho 1 site in nef was deleted. Resistance Test vectors (RTVs) were constructed by incorporating amplified POL or RHIN into the IGVV by using Apal and Xhol or PinAI and Xho 1 restriction sites respectively. RTVs were prepared as libraries (pools) in order to capture and preserve the pol or RHIN sequence heterogeneity of the virus in the patient. POL amplification products were digested with Apal and Xhol, purified by agarose gel electrophoresis, and ligated to ApaI- and Xhol-digested IGVV DNA. RHIN amplification products were digested with PinAI and Xho/, purified by agarose gel electrophoresis, and ligated to PinAI and Xhol-digested IGVV DNA. Ligation reactions were used to transform competent Escherichia coli (Invitrogen, Carlsbad, Calif.). An aliquot of each transformation was plated onto agar, and colony counts were used to estimate the number of patient-derived segments represented in each RTV library. RTV libraries that comprised less than 50 members are not considered representative of the patient virus. […]

[2] = system: HIV-1 (patient-derived RHIN segment); assay: phenotypic drug resistance test, resistance test vectors with patient-derived RHIN segment, luciferase, 293 cells; assay type: cell-based
Text: as §1, §2, §3, §4

[3] = Sample 47 (K103K/N, V106V/A, Y181Y/C, G190G/A)
[4] = Sample 58 (K103N, Y181Y/C, G190G/A)
[5] = Sample 62 (K103H, P225P/H, T369T/I)
[6] = Sample 90 (K103K/N, Y181C, G190A)

O=C1Nc2ccc(Cl)cc2[C@@](C#CC2CC2)(C(F)(F)F)O1 [EFV, efavirenz]
fold change in IC50, pol ([1]; Sample 31 (K103N)): 56.0 fold | pol/PR-RT ratio ([1]; Sample 31 (K103N)): 2.5 | fold change in IC50, pol ([1]; Sample 33 (K103S)): 5.9 fold | pol/PR-RT ratio ([1]; Sample 33 (K103S)): 0.8 | fold change in IC50, pol ([1]; Sample 34): 0.6 fold | pol/PR-RT ratio ([1]; Sample 34): 1.4 | fold change in IC50, pol ([1]; Sample 35 (K103H)): 9.5 fold | pol/PR-RT ratio ([1]; Sample 35 (K103H)): 1.0 | fold change in IC50, pol ([1]; Sample 36 (K103K/W)): 2.2 fold | pol/PR-RT ratio ([1]; Sample 36 (K103K/W)): 0.3 | fold change in IC50, pol ([1]; Sample 38 (K103N)): 27.0 fold | pol/PR-RT ratio ([1]; Sample 38 (K103N)): 0.6 | fold change in IC50, pol ([1]; Sample 39 (T369A)): 1.0 fold | pol/PR-RT ratio ([1]; Sample 39 (T369A)): 4.0 | fold change in IC50, pol ([1]; Sample 42 (G190G/A)): 1.1 fold | pol/PR-RT ratio ([1]; Sample 42 (G190G/A)): 0.3 | fold change in IC50, pol ([1]; Sample 45): 0.2 fold | pol/PR-RT ratio ([1]; Sample 45): 1.0 | fold change in IC50, pol [1, 3]: 30.2 fold | pol/PR-RT ratio [1, 3]: 0.2 | fold change in IC50, pol ([1]; Sample 50 (K103N)): 24.1 fold | pol/PR-RT ratio ([1]; Sample 50 (K103N)): 0.4 | fold change in IC50, pol ([1]; Sample 51): 0.5 fold | pol/PR-RT ratio ([1]; Sample 51): 1.1 | fold change in IC50, pol ([1]; Sample 52): 1.1 fold | pol/PR-RT ratio ([1]; Sample 52): 0.8 | fold change in IC50, pol [1, 4]: 153.9 fold | pol/PR-RT ratio [1, 4]: 5.8 | fold change in IC50, pol [1, 5]: 202 fold and 202.0 fold and 202.00 fold | pol/PR-RT ratio [1, 5]: 10.1 | fold change in IC50, pol ([1]; Sample 64 (T369T/A)): 0.3 fold | pol/PR-RT ratio ([1]; Sample 64 (T369T/A)): 0.3 | fold change in IC50, pol ([1]; Sample 69): 1.2 fold | pol/PR-RT ratio ([1]; Sample 69): 1.6 | fold change in IC50, pol ([1]; Sample 72): 0.8 fold | pol/PR-RT ratio ([1]; Sample 72): 1.5 | fold change in IC50, pol ([1]; Sample 80 (K103K/N, Y181Y/C)): 6.3 fold | pol/PR-RT ratio ([1]; Sample 80 (K103K/N, Y181Y/C)): 0.6 | fold change in IC50, pol ([1]; Sample 81 (K103N, P225H)): 136.0 fold | pol/PR-RT ratio ([1]; Sample 81 (K103N, P225H)): 1.4 | fold change in IC50, pol ([1]; Sample 84): 0.7 fold | pol/PR-RT ratio ([1]; Sample 84): 1.0 | fold change in IC50, pol ([1]; Sample 85): 77.0 fold | pol/PR-RT ratio ([1]; Sample 85): 3.5 | fold change in IC50, pol ([1]; Sample 87): 1.0 fold | pol/PR-RT ratio ([1]; Sample 87): 1.1 | fold change in IC50, pol ([1]; Sample 89 (L1001, K103N)): 700.0 fold | pol/PR-RT ratio ([1]; Sample 89 (L1001, K103N)): 1.0 | fold change in IC50, pol [1, 6]: 66.0 fold | pol/PR-RT ratio [1, 6]: 1.3 | fold change in IC50, pol ([1]; Sample 92): 0.8 fold | pol/PR-RT ratio ([1]; Sample 92): 0.8 | fold change in IC50, pol ([1]; Sample 93): 0.7 fold | pol/PR-RT ratio ([1]; Sample 93): 0.8 | fold change in IC50, RHIN ([2]; Sample 31 (K103N)): 1.1 fold | fold change in IC50, RHIN ([2]; Sample 33 (K103S)): 0.7 fold | fold change in IC50, RHIN ([2]; Sample 34): 1.0 fold | fold change in IC50, RHIN ([2]; Sample 35 (K103H)): 0.7 fold | fold change in IC50, RHIN ([2]; Sample 36 (K103K/W)): 1.0 fold | fold change in IC50, RHIN ([2]; Sample 38 (K103N)): 0.5 fold | fold change in IC50, RHIN ([2]; Sample 39 (T369A)): 0.9 fold | fold change in IC50, RHIN ([2]; Sample 42 (G190G/A)): 0.4 fold | fold change in IC50, RHIN ([2]; Sample 45): 1.0 fold | fold change in IC50, RHIN [2, 3]: 0.5 fold | fold change in IC50, RHIN ([2]; Sample 50 (K103N)): 0.5 fold | fold change in IC50, RHIN ([2]; Sample 51): 0.4 fold | fold change in IC50, RHIN ([2]; Sample 52): 1.0 fold | fold change in IC50, RHIN [2, 4]: 0.9 fold | fold change in IC50, RHIN [2, 5]: 1.8 fold and 1.83 fold | fold change in IC50, RHIN ([2]; Sample 64 (T369T/A)): 0.3 fold | fold change in IC50, RHIN ([2]; Sample 69): 0.8 fold | fold change in IC50, RHIN ([2]; Sample 72): 1.0 fold | fold change in IC50, RHIN ([2]; Sample 80 (K103K/N, Y181Y/C)): 0.52 fold | fold change in IC50, RHIN ([2]; Sample 81 (K103N, P225H)): 1.2 fold | fold change in IC50, RHIN ([2]; Sample 84): 0.5 fold | fold change in IC50, RHIN ([2]; Sample 85): 1.2 fold | fold change in IC50, RHIN ([2]; Sample 87): 1.3 fold | fold change in IC50, RHIN ([2]; Sample 89 (L1001, K103N)): 1.2 fold | fold change in IC50, RHIN [2, 6]: 0.7 fold | fold change in IC50, RHIN ([2]; Sample 92): 0.3 fold | fold change in IC50, RHIN ([2]; Sample 93): 0.9 fold

Source: patent US8637252B2, “Methods and compositions for determining altered susceptibility of HIV-1 to anti-HIV drugs” (Monogram Biosciences, Inc., priority 2011, dated 2014)
